Experimental data published in ChEMBL document CHEMBL1127436, “[(3-Pyridylalkyl)piperidylidene]benzocycloheptapyridine derivatives as dual antagonists of PAF and histamine” (J Med Chem, 1994).

Tests used:
Type in all cases: functional
[1] = species: Mus musculus; test: Dose required to inhibit PAF-induced mortality; details: read-out: ID50 (the source's name)
[2] = tested on: Mus musculus; test: Antiallergic activity was evaluated using active anaphylactic test after po administration of 10 (mg/kg) in mice
[3] = species: Oryctolagus cuniculus; test: Concentration required to inhibit PAF-induced maximum aggregation
[4] = tested on: Rattus norvegicus; test: Intravenous dose required to reduce the lowering of the arterial blood pressure caused by PAF; details: for ED50: Rattus norvegicus, Arterial blood, iv, read-out: ID50 (the source's name)
[5] = tested on: Mus musculus; test: Antiallergic activity was evaluated using active anaphylactic test after po administration in mice; details: read-out: ID50 (the source's name)
[6] = species: Cavia porcellus; test: Tested for concentration required to inhibit H1 histamine -induced guinea pig ileum contraction
[7] = species: Cavia porcellus; test: Tested for concentration required to inhibit histamine -induced ileum contraction
[8] = tested on: Rattus norvegicus; test: Tested at 10 (mg/kg) intravenous dose for percent inhibition of the arterial blood pressure in normotensive rats caused by histamine
[9] = tested on: Rattus norvegicus; test: Tested at 30 (mg/kg) dose for percent inhibition required to inhibit mortality in sensitized animals by histamine
[10] = tested on: Rattus norvegicus; test: Tested at 10 (mg/kg) intravenous dose for percent inhibition required to reduce the lowering of the arterial blood pressure caused by histamine
[11] = tested on: Mus musculus; test: Antiallergic activity was evaluated using active anaphylactic test after po administration of 30 (mg/kg) in mice
[12] = tested on: Mus musculus; test: Tested for effect on central nervous system in mice at 100 mg/kg peroral dose for spontaneous motor activity (SMA) expressed as percentage relative to control; details: route oral
[13] = species: Rattus norvegicus; test: Tested for dose required to inhibit endotoxin induced mortality in rats; details: read-out: ID50 (the source's name)
[14] = species: Mus musculus; test: Tested for dose required to inhibit endotoxin induced mortality in mice; details: read-out: ID50 (the source's name)
[15] = species: Rattus norvegicus; test: Tested for dose required to inhibit antigen induced increased permeability; details: read-out: ID50 (the source's name)
[16] = tested on: Mus musculus; test: Tested for effect on central nervous system in mice at 100 mg/kg peroral dose barbiturate-sleeping time (BST); details: route oral

Row | Compound | ED50 [1] | IC50 [3] | ED50 [4] | ED50 [5] | IC50 [6] | further results
1 | CSc1ncccc1C(=O)N1CCC(=C2c3ccc(Cl)cc3CCc3cccnc32)CC1 | > 30 mg/kg | 20000 nM | > 5 mg/kg | – | – | Inhibition [2]: 50%
2 | COc1ccc(C(=O)N2CCC(=C3c4ccc(Cl)cc4CCc4cccnc43)CC2)cn1 | 30 mg/kg | > 100000 nM | – | 5.5 mg/kg | 34 nM | ID50 [4]: > 5 mg/kg
3 | O=C(c1cccnc1O)N1CCC(=C2c3ccc(Cl)cc3CCc3cccnc32)CC1 | > 30 mg/kg | > 100000 nM | – | – | – | Inhibition [2]: 56%
4 | O=C(c1cccnc1Cl)N1CCC(=C2c3ccc(Cl)cc3CCc3cccnc32)CC1 | – | > 100000 nM | – | > 30 mg/kg | – | IC50 [7]: 130 nM
5 | O=C(c1ccc(Cl)nc1)N1CCC(=C2c3ccc(Cl)cc3CCc3cccnc32)CC1 | 20 mg/kg | > 100000 nM | > 1 mg/kg | 1.9 mg/kg | – | IC50 [7]: 64 nM
6 | Cc1cncc(C(=O)N2CCC(=C3c4ccc(Cl)cc4CCc4cccnc43)CC2)c1 | – | 3100 nM | > 5 mg/kg | 12 mg/kg | 350 nM | –
7 | COc1ccc(CN2CCC(=C3c4ccc(Cl)cc4CCc4cccnc43)CC2)cn1 | < 30 mg/kg | 37000 nM | – | 5.9 mg/kg | 380 nM | –
8 | Clc1ccc2c(c1)CCc1cccnc1C2=C1CCN(Cc2ccncc2)CC1 | – | 1800 nM | – | 6.1 mg/kg | 94 nM | Inhibition [8]: 85.1%
9 | COC(=O)c1ccncc1C(=O)N1CCC(=C2c3ccc(Cl)cc3CCc3cccnc32)CC1 | > 30 mg/kg | 17000 nM | > 5 mg/kg | 11 mg/kg | – | –
10 | CC(c1cccnc1)N1CCC(=C2c3ccc(Cl)cc3CCc3cccnc32)CC1.Cl (centres undefined) | > 30 mg/kg | 8200 nM | > 5 mg/kg | > 30 mg/kg | – | –
11 | Cl.Clc1ccc2c(c1)CCc1cccnc1C2=C1CCN(CCc2cccnc2)CC1 | > 30 mg/kg | 34000 nM | > 5 mg/kg | > 30 mg/kg | 360 nM | Inhibition [8]: 95.4%
12 | Cc1ccc(CN2CCC(=C3c4ccc(Cl)cc4CCc4cccnc43)CC2)cn1.Cl | – | 9000 nM | – | 12 mg/kg | 37 nM | Inhibition [8]: 96.4%
13 | COC(=O)c1cncc(CN2CCC(=C3c4ccc(Cl)cc4CCc4cccnc43)CC2)c1.Cl | – | > 100000 nM | > 5 mg/kg | – | 190 nM | –
14 | Clc1ccc2c(c1)CCc1cccnc1C2=C1CCN(Cc2cncc(Br)c2)CC1 | 10 mg/kg | 720 nM | – | 17 mg/kg | 280 nM | Inhibition [8]: 61.9%
15 | O=C(c1cncc(Br)c1)N1CCC(=C2c3ccc(Cl)cc3CCc3cccnc32)CC1 | > 30 mg/kg | 3400 nM | > 5 mg/kg | > 30 mg/kg | – | –
16 | [O-][n+]1cccc(CN2CCC(=C3c4ccc(Cl)cc4CCc4cccnc43)CC2)c1 | > 30 mg/kg | 14000 nM | > 5 mg/kg | – | – | Inhibition [9]: 56%

Row | Compound | ED50 [1] | IC50 [3] | ED50 [4] | ED50 [5] | IC50 [6] | further results
17 | O=C(c1ccc(O)nc1)N1CCC(=C2c3ccc(Cl)cc3CCc3cccnc32)CC1 | > 3 mg/kg | 1500 nM | 1.5 mg/kg | > 30 mg/kg | 390 nM | Inhibition [8]: 67%
18 | COc1ncccc1CN1CCC(=C2c3ccc(Cl)cc3CCc3cccnc32)CC1 | – | 6000 nM | > 5 mg/kg | 17 mg/kg | – | –
19 | Clc1ccc2c(c1)CCc1cccnc1C2=C1CCN(Cc2cccnc2)CC1 | – | 4000 nM | – | 6.7 mg/kg | 93 nM | Inhibition [8]: 83.6%
20 | O=C(c1cc[n+]([O-])cc1)N1CCC(=C2c3ccc(Cl)cc3CCc3cccnc32)CC1 | – | 220 nM | – | 12 mg/kg | – | Inhibition [10]: 46.2%; IC50 [7]: 210 nM
21 | Clc1ccc2c(c1)CCc1cccnc1C2=C1CCN(Cc2cccnc2Cl)CC1 | – | > 100000 nM | – | 4.5 mg/kg | – | IC50 [7]: 350 nM
22 | Clc1ccc2c(c1)CCc1cccnc1C2=C1CCN(Cc2ccc(Cl)nc2)CC1 | 20 mg/kg | > 100000 nM | – | 6.9 mg/kg | – | –
23 | Cc1ccncc1CN1CCC(=C2c3ccc(Cl)cc3CCc3cccnc32)CC1 | 10 mg/kg | 15000 nM | – | – | 35 nM | Inhibition [11]: 56%
24 | Cc1ncccc1CN1CCC(=C2c3ccc(Cl)cc3CCc3cccnc32)CC1 | – | 13000 nM | – | – | 270 nM | Inhibition [11]: 50%
25 | O=C(O)c1cncc(CN2CCC(=C3c4ccc(Cl)cc4CCc4cccnc43)CC2)c1 | > 30 mg/kg | 85000 nM | > 5 mg/kg | 6.5 mg/kg | 350 nM | –
26 | CN1C(=O)CN=C(c2ccccc2)c2cc(Cl)ccc21 [DIAZEPAM] | – | – | – | – | – | Relative to control [12]: 54%
27 | CN(C)CCOC(c1ccccc1)c1ccccc1 [DIPHENHYDRAMINE] | – | – | – | – | – | ED50 [13]: > 5 mg/kg; ED50 [14]: > 10 mg/kg
28 | CCOC(=O)N1CCC(=C2c3ccc(Cl)cc3CCc3cccnc32)CC1 [LORATADINE] | – | – | – | 19 mg/kg | – | ED50 [15]: 2.4 mg/kg; Inhibition [8]: 66.3%; X [16]: 320 min; ED50 [13]: > 5 mg/kg; Relative to control [12]: 106%; ED50 [14]: > 10 mg/kg
29 | Cc1cncc(CN2CCC(=C3c4ccc(Cl)cc4CCc4cccnc43)CC2)c1 [RUPATADINE] | – | 3700 nM | – | 13 mg/kg | – | ED50 [15]: 1.2 mg/kg; Inhibition [8]: 89%; X [16]: 138 min; ED50 [13]: 0.5 mg/kg; Relative to control [12]: 97%; ED50 [14]: 1.2 mg/kg
30 | CC(=O)N1CCC(=C2c3ccc(Cl)cc3CCc3cccnc32)CC1 [SCH-37370] | – | 840 nM | – | 19 mg/kg | 100 nM | ED50 [15]: 10 mg/kg; Inhibition [8]: 55.1%; X [16]: 296 min; ED50 [13]: > 5 mg/kg; ED50 [14]: > 10 mg/kg
31 | CC(C)(C)c1ccc(C(O)CCCN2CCC(C(O)(c3ccccc3)c3ccccc3)CC2)cc1 (centres undefined) [TERFENADINE] | – | – | – | – | – | X [16]: 133 min; Relative to control [12]: 90%
